Experimental data taken from US20140066431A1, “Benzoxazepines as Inhibitors of PI3K/mTOR and Methods of Their Use and Manufacture” (Exelixis, Inc., priority 2010, published 2014).

Legend:
PI3Kα = PI3Kα (Homo sapiens, UniProt P42336); assay: PI3K biochemical assay (ATP consumption, luciferase-luciferin); conditions: 1.5 nM enzyme, 1 μM ATP, 10 μM PIP2
Procedure: PI3Kα activity is measured as the percent of ATP consumed following the kinase reaction using luciferase-luciferin-coupled chemiluminescence. Reactions were conducted in 384-well white, medium binding microtiter plates (Greiner). Kinase reactions were initiated by combining test compounds, ATP, substrate (PIP2), and kinase in a 20 μL volume in a buffer solution. The standard PI3Kalpha assay buffer is composed 50 mM Tris, pH 7.5, 1 mM EGTA, 10 mM MgCl2, 1 mM DTT and 0.03% CHAPS. The standard assay concentrations for enzyme, ATP, and substrate are 1.5 nM, 1 μM, and 10 μM, respectively. The reaction mixture was incubated at ambient temperature for approximately 2 h. Following the kinase reaction, a 10 μL aliquot of luciferase-luciferin mix (Promega Kinase-Glo) was added and the chemiluminescence signal measured using a Victor2 plate reader (Perkin Elmer). Total ATP consumption was limited to 40-60% and IC50 values of control compounds correlate well with literature references. Substituting PI3Kα with PI3Kβ, PI3Kγ, or PI3Kδ, the inhibitory activity of the compounds for the other isoforms of I3K were measured.

mTOR/GbL/Raptor (mTORC1) = mTOR/GbL/Raptor (mTORC1) (Homo sapiens, UniProt P42345); assay: mTOR/GbL/Raptor (mTORC1) ELISA assay; format: biochemical; conditions: 0.2 nM mTORC1, 10 μM ATP, 50 nM 4E-BP1
Procedure: The measurement of mTORC1 enzyme activity was performed in an ELISA assay format following the phosphorylation of 4E-BP1 protein. All experiments were performed in the 384-well format. Generally, 0.5 μL DMSO containing varying concentrations of the test compound was mixed with 15 μL enzyme solution. Kinase reactions were initiated with the addition of 15 μL of substrates-containing solution. The assay conditions were as follows; 0.2 nM mTORC1, 10 μM ATP and 50 nM NHis-tagged 4E-BP1 in 20 mM Hepes, pH 7.2, 1 mM DTT, 50 mM NaCl, 10 mM MnCl2, 0.02 mg/mL BSA, 0.01% CHAPS, 50 mM β-glycerophosphate. Following an incubation of 120 minutes at ambient temperature, 20 μL of the reaction volume was transferred to a Ni-Chelate-coated 384-well plate. The binding step of the 4E-BP1 protein proceeded for 60 minutes, followed by washing 4 times each with 50 μL of Tris-buffered saline solution (TBS). Anti-phospho-4E-BP1 rabbit-IgG (20 μL, 1:5000) in 5% BSA-TBST (0.2% Tween-20 in TBS) was added and further incubated for 60 minutes. Incubation with a secondary HRP-tagged anti-IgG was similarly performed after washing off the primary antibody (4 washes of 50 μL). Following the final wash step with TBST, 20 μL of SuperSignal ELISA Femto (Pierce Biotechnology) was added and the luminescence measured using an EnVision plate reader.

Chain of PI3Kα (P42336 whole entry): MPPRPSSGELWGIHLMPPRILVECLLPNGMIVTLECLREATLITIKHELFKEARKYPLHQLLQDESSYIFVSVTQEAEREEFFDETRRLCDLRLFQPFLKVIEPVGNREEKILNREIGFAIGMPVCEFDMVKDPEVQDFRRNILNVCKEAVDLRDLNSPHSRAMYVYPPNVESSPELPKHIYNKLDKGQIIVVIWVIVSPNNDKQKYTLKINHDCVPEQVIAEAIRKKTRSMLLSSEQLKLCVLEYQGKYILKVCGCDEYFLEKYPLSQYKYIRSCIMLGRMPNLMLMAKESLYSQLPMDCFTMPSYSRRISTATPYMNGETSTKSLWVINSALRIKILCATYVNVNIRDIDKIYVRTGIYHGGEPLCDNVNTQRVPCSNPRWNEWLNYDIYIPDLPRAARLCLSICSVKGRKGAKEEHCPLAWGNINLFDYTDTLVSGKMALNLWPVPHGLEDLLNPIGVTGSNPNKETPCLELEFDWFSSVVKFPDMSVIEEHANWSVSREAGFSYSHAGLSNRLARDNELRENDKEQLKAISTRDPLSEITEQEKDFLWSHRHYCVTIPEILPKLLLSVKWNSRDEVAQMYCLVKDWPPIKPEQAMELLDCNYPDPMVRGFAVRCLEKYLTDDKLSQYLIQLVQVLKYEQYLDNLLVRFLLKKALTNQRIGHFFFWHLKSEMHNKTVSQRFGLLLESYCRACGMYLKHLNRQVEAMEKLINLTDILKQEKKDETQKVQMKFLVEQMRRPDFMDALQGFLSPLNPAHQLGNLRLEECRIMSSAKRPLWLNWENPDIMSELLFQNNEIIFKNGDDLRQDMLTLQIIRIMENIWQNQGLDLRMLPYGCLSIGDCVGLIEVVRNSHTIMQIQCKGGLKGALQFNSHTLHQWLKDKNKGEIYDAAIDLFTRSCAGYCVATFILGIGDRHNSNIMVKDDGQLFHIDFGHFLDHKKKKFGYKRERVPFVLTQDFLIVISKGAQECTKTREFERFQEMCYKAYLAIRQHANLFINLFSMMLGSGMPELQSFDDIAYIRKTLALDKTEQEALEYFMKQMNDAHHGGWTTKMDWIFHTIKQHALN
Chain of PI3Kα (P27986 whole entry partner): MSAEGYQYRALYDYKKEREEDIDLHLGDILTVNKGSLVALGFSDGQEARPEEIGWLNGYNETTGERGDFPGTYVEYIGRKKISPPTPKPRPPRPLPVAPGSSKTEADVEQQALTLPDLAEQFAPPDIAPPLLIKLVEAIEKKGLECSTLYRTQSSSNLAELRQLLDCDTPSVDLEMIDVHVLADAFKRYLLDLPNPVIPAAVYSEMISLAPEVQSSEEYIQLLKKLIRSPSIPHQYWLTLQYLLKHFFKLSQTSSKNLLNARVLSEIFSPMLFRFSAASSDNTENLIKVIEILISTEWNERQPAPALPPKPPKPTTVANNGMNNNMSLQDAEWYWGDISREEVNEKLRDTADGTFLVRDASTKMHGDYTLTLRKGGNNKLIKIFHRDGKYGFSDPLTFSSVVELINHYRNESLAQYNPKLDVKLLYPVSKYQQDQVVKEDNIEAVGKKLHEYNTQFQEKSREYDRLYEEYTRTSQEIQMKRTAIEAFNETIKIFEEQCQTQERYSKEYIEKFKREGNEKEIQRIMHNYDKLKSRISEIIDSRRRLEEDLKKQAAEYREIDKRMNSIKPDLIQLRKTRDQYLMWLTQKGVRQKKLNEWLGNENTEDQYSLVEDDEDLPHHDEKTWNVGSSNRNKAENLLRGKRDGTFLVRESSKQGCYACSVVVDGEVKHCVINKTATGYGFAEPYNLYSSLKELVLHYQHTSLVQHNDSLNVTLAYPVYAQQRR

Compound	IC50 (PI3Kα biochemical assay) (PI3Kα)	IC50 (mTORC1 ELISA) (mTOR/GbL/Raptor (mTORC1))
Cc1nc2ccc(-c3ccc4c(c3)CN(C(=O)N3CCCC[C@H]3c3ccccc3)CCO4)cc2[nH]1 [compound 65, 7-(2-methyl-1H-benzimidazol-6-yl)-4-{[(2S)-2-phenylpiperidin-1-yl]carbonyl}-2,3,4,5-tetrahydro-1,4-benzoxazepine]	not active	
Cc1nc2ccc(-c3ccc4c(c3)CN(C(=O)N3CCC(O)(C(F)(F)F)CC3c3ccc(F)c(F)c3)CCO4)cc2[nH]1 (stereo not drawn) [compound 119, 2-(3,4-difluorophenyl)-1-{[7-(2-methyl-1H-benzimidazol-6-yl)-2,3-dihydro-1,4-benzoxazepin-4(5H)-yl]carbonyl}-4-(trifluoromethyl)piperidin-4-ol]		not active
Cc1nc2ccc(-c3ccc4c(c3)CN(C(=O)N3[C@@H]5CC[C@H]3C[C@@H](CO)C5)CCO4)cc2[nH]1 [compound 112, (8-{[7-(2-methyl-1H-benzimidazol-6-yl)-2,3-dihydro-1,4-benzoxazepin-4(5H)-yl]carbonyl}-8-azabicyclo[3.2.1]oct-3-(endo)-yl)methanol]		not active
Cc1nc2cc(-c3ccc4c(c3)CN(C(=O)N3CC[C@@](C)(O)C[C@@H]3c3ccccc3)CCO4)ccc2[nH]1 (racemic) [compound 133, (±)-(2R,4R)-4-methyl-1-{[7-(2-methyl-1H-benzimidazol-5-yl)-2,3-dihydro-1,4-benzoxazepin-4(5H)-yl]carbonyl}-2-phenylpiperidin-4-ol]	not active	
Cc1nc2ccc(-c3ccc4c(c3)CN(C(=O)N3CCCCC3c3ccccc3C)CCO4)cc2[nH]1 (stereo not drawn) [compound 126, 7-(2-methyl-1H-benzimidazol-6-yl)-4-{[2-(2-methylphenyl)piperidin-1-yl]carbonyl}-2,3,4,5-tetrahydro-1,4-benzoxazepine]	not active	
CC1CCN(C(=O)N2CCOc3ccc(-c4cc(NCc5ccccc5)[nH]n4)cc3C2)CC1 [compound 9, 3-{4-[(4-methylpiperidin-1-yl)carbonyl]-2,3,4,5-tetrahydro-1,4-benzoxazepin-7-yl}-N-(phenylmethyl)-1H-pyrazol-5-amine]		not active
CC1CCN(C(=O)N2CCOc3ccc(-c4ccc(N)nn4)cc3C2)CC1 [compound 1, 6-{4-[(4-methylpiperidin-1-yl)carbonyl]-2,3,4,5-tetrahydro-1,4-benzoxazepin-7-yl}pyridazin-3-amine]	not active	
CC1CCN(C(=O)N2CCOc3ccc(-c4cnc(N)cn4)cc3C2)CC1 [compound 4, 5-{4-[(4-methylpiperidin-1-yl)carbonyl]-2,3,4,5-tetrahydro-1,4-benzoxazepin-7-yl}pyrazin-2-amine]	not active	
CC1CCN(C(=O)N2CCOc3ccc(-c4cc(N)[nH]n4)cc3C2)CC1 [compound 10, 3-{4-[(4-methylpiperidin-1-yl)carbonyl]-2,3,4,5-tetrahydro-1,4-benzoxazepin-7-yl}-1H-pyrazol-5-amine]	not active	
Nc1cnc(-c2ccc3c(c2)CN(C(=O)N2CCC(C(F)(F)F)CC2)CCO3)cn1 [compound 6, 5-(4-{[4-(trifluoromethyl)piperidin-1-yl]carbonyl}-2,3,4,5-tetrahydro-1,4-benzoxazepin-7-yl)pyrazin-2-amine]	not active	
Cc1nc2ccc(-c3ccc4c(c3)CN(C(=O)N3CCCCC3Cc3ccccc3)CCO4)cc2[nH]1 (stereo not drawn) [compound 104, 7-(2-methyl-1H-benzimidazol-6-yl)-4-{[2-(phenylmethyl)piperidin-1-yl]carbonyl}-2,3,4,5-tetrahydro-1,4-benzoxazepine]	not active	
Cc1nc2ccc(-c3ccc4c(c3)CN(C(=O)N3[C@@H]5CC[C@H]3C[C@@H](N)C5)CCO4)cc2[nH]1 [compound 77, 8-{[7-(2-methyl-1H-benzimidazol-6-yl)-2,3-dihydro-1,4-benzoxazepin-4(5H)-yl]carbonyl}-8-azabicyclo[3.2.1]octan-3-(endo)-amine]	not active	
Cc1nc2ccc(-c3ccc4c(c3)CN(C(=O)N3CCCCC3c3ccc(F)cc3C)CCO4)cc2[nH]1 (stereo not drawn) [compound 117, 4-{[2-(4-fluoro-2-methylphenyl)piperidin-1-yl]carbonyl}-7-(2-methyl-1H-benzimidazol-6-yl)-2,3,4,5-tetrahydro-1,4-benzoxazepine]	not active	

Continued, values first:

IC50 (PI3Kα biochemical assay) (PI3Kα)	IC50 (mTORC1 ELISA) (mTOR/GbL/Raptor (mTORC1))	Compound
not active		CCC1CC2(CCN(C(=O)N3CCOc4ccc(-c5ccc6nc(C)[nH]c6c5)cc4C3)CC2)CC(=O)N1 (stereo not drawn) [compound 155, 4-ethyl-9-{[7-(2-methyl-1H-benzimidazol-6-yl)-2,3-dihydro-1,4-benzoxazepin-4(5H)-yl]carbonyl}-3,9-diazaspiro[5.5]undecan-2-one]
	not active	Cc1nc2ccc(-c3ccc4c(c3)CN(C(=O)N3CCN(C(=O)c5ccco5)CC3)CCO4)cc2[nH]1 [compound 158, 4-{[4-(furan-2-ylcarbonyl)piperazin-1-yl]carbonyl}-7-(2-methyl-1H-benzimidazol-6-yl)-2,3,4,5-tetrahydro-1,4-benzoxazepine]
	not active	Cc1nc2ccc(-c3ccc4c(c3)CN(C(=O)N3CCN(c5ccc([N+](=O)[O-])cc5)CC3)CCO4)cc2[nH]1 [compound 168, 7-(2-methyl-1H-benzimidazol-6-yl)-4-{[4-(4-nitrophenyl)piperazin-1-yl]carbonyl}-2,3,4,5-tetrahydro-1,4-benzoxazepine]
not active		Cc1nc2ccc(-c3ccc4c(c3)CN(C(=O)N3CCN(C)C(=O)C3)CCO4)cc2[nH]1 [compound 146, 1-methyl-4-{[7-(2-methyl-1H-benzimidazol-6-yl)-2,3-dihydro-1,4-benzoxazepin-4(5H)-yl]carbonyl}piperazin-2-one]
	not active	Cc1nc2ccc(-c3ccc4c(c3)CN(C(=O)N3CCN(C)CC3c3ccccc3)CCO4)cc2[nH]1 (stereo not drawn) [compound 144, 7-(2-methyl-1H-benzimidazol-6-yl)-4-[(4-methyl-2-phenylpiperazin-1-yl)carbonyl]-2,3,4,5-tetrahydro-1,4-benzoxazephin]
not active		Cc1nc2ccc(-c3ccc4c(c3)CN(C(=O)N3CCC(Cc5ccccc5)CC3)CCO4)cc2[nH]1 [compound 171]
not active		Cc1nc2ccc(-c3ccc4c(c3)CN(C(=O)N3CCN(Cc5c(F)cccc5Cl)CC3)CCO4)cc2[nH]1 [compound 152, 4-({4-[(2-chloro-6-fluoropheny)methyl]piperazin-1-yl}carbonyl)-7-(2-methyl-1H-benzimidazol-6-yl)-2,3,4,5-tetrahydro-1,4-benzoxazepine]
not active		Cc1nc2ccc(-c3ccc4c(c3)CN(C(=O)NC3[C@H]5C[C@@H]6C[C@@H](C[C@H]3C6)C5)CCO4)cc2[nH]1 (stereo partly drawn) [compound 149, 7-(2-methyl-1H-benzimidazol-6-yl)-N-[(1r,3r,5R,7R)-tricyclo[3.3.1.1~3,7~]dec-2-yl]-2,3-dihydro-1,4-benzoxazepine-4(5H)-carboxamide]
not active		CCCCN(Cc1ccccc1)C(=O)N1CCOc2ccc(-c3ccc4nc(C)[nH]c4c3)cc2C1 [compound 173, N-butyl-7-(2-methyl-1H-benzimidazol-6-yl)-N-(phenylmethyl)-2,3-dihydro-1,4-benzoxazepine-4(5H)-carboxamide]
not active		Cc1nc2ccc(-c3ccc4c(c3)CN(C(=O)N3CCN(c5ccccc5F)CC3)CCO4)cc2[nH]1 [compound 165, 4-{[4-(2-fluorophenyl)piperazin-1-yl]carbonyl}-7-(2-methyl-1H-benzimidazol-6-yl)-2,3,4,5-tetrahydro-1,4-benzoxazepine]
not active		Cc1nc2ccc(-c3ccc4c(c3)CN(C(=O)N3CCC(O)(c5ccc(C(F)(F)F)cc5)CC3)CCO4)cc2[nH]1 [compound 141, 1-{[7-(2-methyl-1H-benzimidazol-6-yl)-2,3-dihydro-1,4-benzoxazepin-4(5H)-yl]carbonyl}-4-[4-(trifluoromethyl)phenyl]piperidin-4-ol]
